Blank lines part the entries; values can stand above or below the compound they belong to.
Key:
[1] = test system: G2T1 (DNA, G4) AGGGTTAGGGTTAGGGTTAGGGTTAGGGTTAGGGTTAGGGTTAGGG; assay: UV/Vis titration; conditions: 10 mM Tris-HCl pH 7.04, 20 μM complex, apparent, per base pair
[2] = test system: G2T1 (DNA, G4) AGGGTTAGGGTTAGGGTTAGGGTTAGGGTTAGGGTTAGGGTTAGGG; assay: CD melting, 295 nm; conditions: 100 mM NaCl, 10 mM Tris-HCl pH 7.04, 2.5 μM DNA
[3] = test system: G1 (DNA, G4) AGGGTTAGGGTTAGGGTTAGGG; assay: UV/Vis titration; conditions: 10 mM Tris-HCl pH 7.04, 20 μM complex, apparent, per base pair
[4] = test system: G2T6 (DNA, G4) AGGGTTAGGGTTAGGGTTAGGGTTATTATTATTATTATTAGGGTTAGGGTTAGGGTTAGGG; assay: CD melting, 295 nm; conditions: 100 mM NaCl, 10 mM Tris-HCl pH 7.04
[5] = test system: G2T4 (DNA, G4) AGGGTTAGGGTTAGGGTTAGGGTTATTATTATTAGGGTTAGGGTTAGGGTTAGGG; assay: CD melting, 295 nm; conditions: 100 mM NaCl, 10 mM Tris-HCl pH 7.04
[6] = test system: G2T2 (DNA, G4) AGGGTTAGGGTTAGGGTTAGGGTTATTAGGGTTAGGGTTAGGGTTAGGG; assay: CD melting, 295 nm; conditions: 100 mM NaCl, 10 mM Tris-HCl pH 7.04
[7] = test system: G2T1 (DNA, G4) AGGGTTAGGGTTAGGGTTAGGGTTAGGGTTAGGGTTAGGGTTAGGG; assay: native gel electrophoresis; conditions: 100 mM NaCl, 10 mM Tris-HCl pH 7.04, 8 μM DNA
[8] = test system: G1 (DNA, G4) AGGGTTAGGGTTAGGGTTAGGG; assay: CD melting, 295 nm; conditions: 100 mM NaCl, 10 mM Tris-HCl pH 7.04
[9] = test system: G1 (DNA, G4) AGGGTTAGGGTTAGGGTTAGGG; assay: native gel electrophoresis; conditions: 100 mM NaCl; 10 mM Tris-HCl pH 7.04; 16 μM DNA, 32 μM complex
[10] = test system: Ap7+Ap31 (DNA, G4, 2-aminopurine at 7 and 31) AGGGTTAGGGTTAGGGTTAGGGTTAGGGTTAGGGTTAGGGTTAGGG; assay: 2-aminopurine fluorescence quenching; conditions: 100 mM NaCl; 10 mM Tris-HCl pH 7.04, 25 °C; 5 μM DNA
[11] = test system: Ap37 (DNA, G4, 2-aminopurine at 37) AGGGTTAGGGTTAGGGTTAGGGTTAGGGTTAGGGTTAGGGTTAGGG; assay: 2-aminopurine fluorescence quenching; conditions: 100 mM NaCl; 10 mM Tris-HCl pH 7.04, 25 °C; 5 μM DNA
[12] = test system: Ap13 (DNA, G4, 2-aminopurine at 13) AGGGTTAGGGTTAGGGTTAGGGTTAGGGTTAGGGTTAGGGTTAGGG; assay: 2-aminopurine fluorescence quenching; conditions: 100 mM NaCl; 10 mM Tris-HCl pH 7.04, 25 °C; 5 μM DNA
[13] = test system: Ap7 (DNA, G4, 2-aminopurine at 7) AGGGTTAGGGTTAGGGTTAGGGTTAGGGTTAGGGTTAGGGTTAGGG; assay: 2-aminopurine fluorescence quenching; conditions: 100 mM NaCl; 10 mM Tris-HCl pH 7.04, 25 °C; 5 μM DNA
[14] = test system: Ap13+Ap37 (DNA, G4, 2-aminopurine at 13 and 37) AGGGTTAGGGTTAGGGTTAGGGTTAGGGTTAGGGTTAGGGTTAGGG; assay: 2-aminopurine fluorescence quenching; conditions: 100 mM NaCl; 10 mM Tris-HCl pH 7.04, 25 °C; 5 μM DNA
[15] = test system: Ap31 (DNA, G4, 2-aminopurine at 31) AGGGTTAGGGTTAGGGTTAGGGTTAGGGTTAGGGTTAGGGTTAGGG; assay: 2-aminopurine fluorescence quenching and Job's plot; conditions: 100 mM NaCl; 10 mM Tris-HCl pH 7.04, 25 °C; Job's plot at 3 μM total
[16] = 2:1 complex per G-quadruplex unit (4:1 per strand)

- Ka ([1]; 100 mM KCl, 310 nm): 2.52±0.24×10^6 M^-1
- Ka ([1]; 100 mM NaCl, 310 nm): 2.06±0.40×10^6 M^−1
- Δ T m ([2]; 5 μM complex (2:1)): 8.4 °C
- Ka ([3]; 100 mM KCl, 310 nm): 3.53±0.33×10^6 M^-1
- Ka ([3]; 100 mM NaCl, 310 nm): 8.30±0.75×10^5 M^−1
SMILES: [Ni+2].[Ni+2].[O-]c1cc(OCCN2CCCCC2)ccc1C=Nc1ccc(OCCOCCOCCOc2ccc(N=Cc3ccc(OCCN4CCCCC4)cc3[O-])c(N=Cc3ccc(OCCN4CCCCC4)cc3[O-])c2)cc1N=Cc1ccc(OCCN2CCCCC2)cc1[O-]

- Δ T m [4, 16]: 23.5 °C
- Δ T m [5, 16]: 25.5 °C
- Ka ([1]; 100 mM KCl, 310 nm): 1.50±0.22×10^7 M^-1
- Ka ([1]; 100 mM NaCl, 310 nm): 2.34±0.32×10^7 M^−1
- Δ T m [6, 16]: 25.1 °C
- Δ T m ([2]; 10 μM complex (4:1)): 20.8 °C
- binding ([7]; 32 μM complex): yes
- Ka ([3]; 100 mM KCl, 370 nm): 1.15±0.18×10^7 M^-1
- Ka ([3]; 100 mM NaCl, 370 nm): 4.62±0.64×10^6 M^−1
- Δ T m ([8]; complex:DNA 2:1): 13.4 °C
- binding [9]: yes
SMILES: [Ni+2].[O-]c1cc(OCCN2CCCCC2)ccc1C=Nc1ccccc1N=Cc1ccc(OCCN2CCCCC2)cc1[O-]

- binding [10]: yes
- Δ T m ([4]; complex:DNA 2:1): 6.3 °C
- Δ T m ([5]; complex:DNA 2:1): 8.1 °C
- binding [11]: yes
- Ka ([1]; 100 mM KCl, 370 nm): 1.37±0.25×10^7 M^-1
- Ka ([1]; 100 mM NaCl, 370 nm): 3.15±0.42×10^7 M^−1
- binding [12]: yes
- Δ T m ([6]; complex:DNA 2:1): 11.9 °C
- binding [13]: yes
- Δ T m ([2]; 5 μM complex (2:1)): 14.1 °C
- binding ([7]; 16 μM complex): yes
- binding [14]: yes
- Ka ([3]; 100 mM KCl, 370 nm): 2.19±0.32×10^6 M^-1
- Ka ([3]; 100 mM NaCl, 370 nm): 1.05±0.20×10^6 M^−1
- Δ T m ([8]; complex:DNA 1:1): 2.0 °C
- binding [15]: yes
SMILES: [Ni+2].[Ni+2].[O-]c1cc(OCCN2CCCCC2)ccc1C=Nc1ccc(OCCOCCOCCOCCOc2ccc(N=Cc3ccc(OCCN4CCCCC4)cc3[O-])c(N=Cc3ccc(OCCN4CCCCC4)cc3[O-])c2)cc1N=Cc1ccc(OCCN2CCCCC2)cc1[O-]

- Ka ([1]; 100 mM KCl, 310 nm): 1.19±0.16×10^6 M^-1
- Ka ([1]; 100 mM NaCl, 310 nm): 1.08±0.24×10^6 M^−1
- Δ T m ([2]; 5 μM complex (2:1)): 7.7 °C
- Ka ([3]; 100 mM KCl, 310 nm): 2.39±0.35×10^6 M^-1
- Ka ([3]; 100 mM NaCl, 370 nm): 1.27±0.24×10^6 M^−1
SMILES: [Ni+2].[Ni+2].[O-]c1cc(OCCN2CCCCC2)ccc1C=Nc1ccc(OCCOCCOc2ccc(N=Cc3ccc(OCCN4CCCCC4)cc3[O-])c(N=Cc3ccc(OCCN4CCCCC4)cc3[O-])c2)cc1N=Cc1ccc(OCCN2CCCCC2)cc1[O-]

— paper PMC5516229 (2017)
